Consider 7 compounds from US20250230193A1, “CYCLIC COMPOUND HAVING SELECTIVE KRAS INHIBITORY EFFECT ON HRAS AND NRAS” (CHUGAI SEIYAKU KABUSHIKI KAISHA, priority 2022, published 2025).

Assay [1] deals with GDP-bound NRAS wild-type protein (Homo sapiens, UniProt P01111). Kind of assay: Binding to NRAS by surface plasmon resonance (SPR), Single Cycle Kinetics. Particulars: for NRAS/KRAS (ratio of KD value with respect to NRAS to KD value with respect to KRAS): GDP-bound NRAS wild-type vs GDP-bound KRAS wild-type.
Chain of GDP-bound NRAS wild-type protein (P01111 whole entry): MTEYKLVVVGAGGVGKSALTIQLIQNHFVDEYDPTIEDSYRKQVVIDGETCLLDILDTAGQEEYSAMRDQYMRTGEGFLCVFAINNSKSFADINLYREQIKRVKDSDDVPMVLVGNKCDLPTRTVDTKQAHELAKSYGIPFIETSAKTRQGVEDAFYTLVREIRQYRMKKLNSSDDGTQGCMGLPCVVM
Assay [2] has as its target GDP-bound HRAS wild-type protein (Homo sapiens, UniProt P01112). As to the kind of experiment: Binding to HRAS by surface plasmon resonance (SPR), Single Cycle Kinetics. As to conditions: for HRAS/KRAS (ratio of KD value with respect to HRAS to KD value with respect to KRAS): GDP-bound HRAS wild-type vs GDP-bound KRAS wild-type. (In SPR one partner is held on a chip, and binding of the other changes the refractive index at the surface.)

[3] abbreviates: SPR, GDP-bound wild-type proteins.

Where a SMILES comes first, the peptide text is derived from it. Bridges are numbered along the chain shown (N, C = ends). [ ]: non-standard residue; d: D form. hPhe(3-Cl-4-CF3) = N[C@@H](CCc1ccc(C(F)(F)F)c(Cl)c1)C(=O)O; NPrPhe(4-CF3) = CCCN[C@@H](Cc1ccc(C(F)(F)F)cc1)C(=O)O; NMeGly(cPent) = CN[C@H](C(=O)O)C1CCCC1; Hyp = O=C(O)[C@@H]1C[C@@H](O)CN1; NMeL = CN[C@@H](CC(C)C)C(=O)O; Ac4c = NC1(C(=O)O)CCC1; Sar = CNCC(=O)O

Chain of GDP-bound HRAS wild-type protein (P01112 whole entry): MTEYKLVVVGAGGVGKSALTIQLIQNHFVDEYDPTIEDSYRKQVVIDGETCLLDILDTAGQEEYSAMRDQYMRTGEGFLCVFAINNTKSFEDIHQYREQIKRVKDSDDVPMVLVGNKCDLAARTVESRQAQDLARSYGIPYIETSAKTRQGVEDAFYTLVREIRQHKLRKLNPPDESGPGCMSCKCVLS

With `CCC[C@H]1C(=O)N[C@@H]([C@@H](C)CC)C(=O)N(C)CC(=O)N(C)[C@H]2C/C=C\CCN(C2=O)[C@@H](Cc2ccc(C(F)F)cc2)C(=O)N(C)CC(=O)N[C@@H](CCc2ccc(Cl)c(Cl)c2)C(=O)N2C[C@H](OC(C)C)C[C@H]2C(=O)NC2(CC(C)(C)C2)C(=O)N(C)[C@@H](C(CC)CC)C(=O)N(C)[C@H](C(=O)N(C)C)CC(=O)N1C` [PP2535], the “NRAS/KRAS (ratio of KD value with respect to GDP-bound NRAS wild-type protein to KD value with respect to KRAS)” value in assay [1] (class symbols) was “AA (a compound having 20 or more is denoted as AA)”. Further, the “HRAS/KRAS (ratio of KD value with respect to GDP-bound HRAS wild-type protein to KD value with respect to KRAS)” value in assay [2] (class symbols) was “A (a compound having 10 or more and less than 20 is denoted as A)”.
As to `CCC[C@H]1C(=O)N[C@@H]([C@@H](C)CC)C(=O)N(CCC)CC(=O)N(C)[C@H]2C/C=C\CCN(C2=O)[C@@H](Cc2ccc(C)cc2)C(=O)N(C)CC(=O)N[C@@H](CCc2ccc(C(F)(F)F)c(OC)c2)C(=O)N2C[C@H](OCC)C[C@H]2C(=O)NC2(CC(C)(C)C2)C(=O)N(C)[C@@H](C2CCCC2)C(=O)N(C)[C@H](C(=O)N(C)C)CC(=O)N1C` [PP2054], the “NRAS/KRAS (ratio of KD value with respect to NRAS to KD value with respect to KRAS)” value in assay [1] (SPR) is “A (a compound having 10 or more and less than 20 is denoted as A)”. In addition, in assay [2] (SPR), the “HRAS/KRAS (ratio of KD value with respect to HRAS to KD value with respect to KRAS)” value was “A (a compound having 10 or more and less than 20 is denoted as A)”.
Regarding `CC[C@H](C)[C@@H]1NC(=O)[C@H](CC(C)C)N(C)C(=O)C[C@@H](C(=O)N(C)C)N(C)C(=O)[C@H](C2CCCC2)N(C)C(=O)C2(CCCC2)NC(=O)[C@@H]2C[C@@H](C)CN2C(=O)[C@H](CCc2cc(F)c(C(F)(F)F)c(F)c2)NC(=O)CN(C)C(=O)[C@H](Cc2ccc(C)cc2)N2CC/C=C\C[C@@H](C2=O)N(C)C(=O)CN(C)C1=O` [PP2189], the “NRAS/KRAS (ratio of KD value with respect to NRAS to KD value with respect to KRAS)” value in assay [1] (SPR) is “A (a compound having 10 or more and less than 20 is denoted as A)”. Moreover, the “HRAS/KRAS (ratio of KD value with respect to HRAS to KD value with respect to KRAS)” value in assay [2] (SPR) was “A (a compound having 10 or more and less than 20 is denoted as A)”.
For the compound `CCC[C@H]1C(=O)N[C@@H]([C@@H](C)CC)C(=O)N2C[C@@H](OC)C[C@H]2C(=O)N(C)[C@H]2C/C=C\CCN(C2=O)[C@@H](Cc2ccc(C)cc2)C(=O)N(C)CC(=O)N[C@@H](CCc2ccc(C(F)(F)F)c(OC)c2)C(=O)N2C[C@H](OCC)C[C@H]2C(=O)NC2(CC(C)(C)C2)C(=O)N(C)[C@@H](C2CCCC2)C(=O)N(C)[C@H](C(=O)N(C)C)CC(=O)N1C` [PP2557], the “NRAS/KRAS (ratio of KD value with respect to GDP-bound NRAS wild-type protein to KD value with respect to KRAS)” value in assay [1] (class symbols) was “A (a compound having 10 or more and less than 20 is denoted as A)”. In assay [2] (class symbols), the “HRAS/KRAS (ratio of KD value with respect to GDP-bound HRAS wild-type protein to KD value with respect to KRAS)” value was “B (a compound having 3 or more and less than 10 is denoted as B)”.
On to `CCO[C@@H]1C[C@H]2C(=O)NC3(CC(C)(C)C3)C(=O)N(C)[C@@H](C3CCCC3)C(=O)N(C)[C@H](C(=O)N(C)C)CC(=O)N(C)[C@H]3CCCCCCc4ccc(cc4)C[C@@H](C(=O)N(C)CC(=O)N[C@@H](CCc4ccc(C(F)(F)F)c(OC)c4)C(=O)N2C1)N1CC/C=C\C[C@@H](C1=O)N(C)C(=O)CN(C)C(=O)[C@H]([C@@H](C)CC)NC3=O` [PP3066], for which the “NRAS/KRAS (ratio of KD value with respect to GDP-bound NRAS wild-type protein to KD value with respect to KRAS)” value in assay [1] (setting [3]) was “A (a compound having 10 or more and less than 20 is denoted as A)”. In assay [2] (setting [3]), the “HRAS/KRAS (ratio of KD value with respect to GDP-bound HRAS wild-type protein to KD value with respect to KRAS)” value is “B (a compound having 3 or more and less than 10 is denoted as B)”.
Consider `CCCN1C(=O)CN(C)C(=O)CN(C)C(=O)[C@H]([C@@H](C)CC)NC(=O)[C@H](CC(C)C)N(C)C(=O)C[C@@H](C(=O)N(C)C)NC(=O)[C@H](C2CCCC2)N(C)C(=O)C2(CCC2)NC(=O)[C@@H]2C[C@@H](OCC)CN2C(=O)[C@H](CCc2ccc(C(F)(F)F)c(Cl)c2)NC(=O)CN(C)C(=O)[C@@H]1Cc1ccc(C(F)(F)F)cc1` [PP0360] ([NMeL]I[Sar][Sar][NPrPhe(4-CF3)][Sar][hPhe(3-Cl-4-CF3)][Hyp](Et)[Ac4c][NMeGly(cPent)]D-NMe2; lactam N-11), for which the “NRAS/KRAS (ratio of KD for GDP-bound NRAS wild-type to KD for KRAS)” value in assay [1] (SPR) was “B (a compound having 3 or more and less than 10 is denoted as B)”. Also, the “HRAS/KRAS (ratio of KD for GDP-bound HRAS wild-type to KD for KRAS)” value in assay [2] (SPR) was “C (A compound having a KD ratio of 0.1 or more and less than 3 is denoted as C)”.
With `CC[C@H](C)[C@@H]1NC(=O)[C@H](CC(C)C)N(C)C(=O)C[C@@H](C(=O)N2CCOCC2)N(C)C(=O)[C@H](C2CCCC2)N(C)C(=O)C2(CCCC2)NC(=O)[C@@H]2CCCN2C(=O)[C@H](CCc2ccc(C(F)(F)F)c(Cl)c2)NC(=O)CN(C)C(=O)[C@H](Cc2ccc(C(F)(F)F)cc2)N2CCCC[C@@H](C2=O)N(C)C(=O)CN(C)C1=O` [PP0318], in assay [1] (SPR), the “NRAS/KRAS (ratio of KD for GDP-bound NRAS wild-type to KD for KRAS)” value is “B (a compound having 3 or more and less than 10 is denoted as B)”. In assay [2] (SPR), the “HRAS/KRAS (ratio of KD for GDP-bound HRAS wild-type to KD for KRAS)” value is “B (a compound having 3 or more and less than 10 is denoted as B)”.
